Experimental data as given in PubChem BioAssay (NCI).
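Following 48 hours of exposure in 96-well plates, responses at five concentrations were used to interpolate endpoints linearly. TGI: concentration producing complete growth inhibition.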

Legend:
Assay in all cases: growth of human tumour cells (NCI), 48 h
786-0 renal = system: 786-0 renal
A498 renal = system: A498 renal
A549 NSCLC = system: A549 NSCLC
ACHN renal = system: ACHN renal
BT-549 breast = system: BT-549 breast
CAKI-1 renal = system: CAKI-1 renal
CCRF-CEM leukemia = system: CCRF-CEM leukemia
COLO 205 colon = system: COLO 205 colon
DU-145 prostate = system: DU-145 prostate
EKVX NSCLC = system: EKVX NSCLC
HCC-2998 colon = system: HCC-2998 colon
HCT-116 colon = system: HCT-116 colon
HCT-15 colon = system: HCT-15 colon
HL-60(TB) leukemia = system: HL-60(TB) leukemia
HOP-62 NSCLC = system: HOP-62 NSCLC
HOP-92 NSCLC = system: HOP-92 NSCLC
HS 578T breast = system: HS 578T breast
HT29 colon = system: HT29 colon
IGROV1 ovarian = system: IGROV1 ovarian
K-562 leukemia = system: K-562 leukemia
KM12 colon = system: KM12 colon
LOX IMVI melanoma = system: LOX IMVI melanoma
M14 melanoma = system: M14 melanoma
MALME-3M melanoma = system: MALME-3M melanoma
MCF7 breast = system: MCF7 breast
MDA-MB-231 breast = system: MDA-MB-231 breast
MDA-MB-435 = system: MDA-MB-435
MDA-N = system: MDA-N
MOLT-4 leukemia = system: MOLT-4 leukemia
NCI-H23 lung = system: NCI-H23 lung
NCI-H460 lung = system: NCI-H460 lung
NCI-H522 lung = system: NCI-H522 lung
NCI/ADR-RES ovarian = system: NCI/ADR-RES ovarian
OVCAR-3 ovarian = system: OVCAR-3 ovarian
OVCAR-5 ovarian = system: OVCAR-5 ovarian
OVCAR-8 ovarian = system: OVCAR-8 ovarian
PC-3 prostate = system: PC-3 prostate
RPMI-8226 leukemia = system: RPMI-8226 leukemia
RXF 393 renal = system: RXF 393 renal
SF-268 CNS = system: SF-268 CNS
SF-295 CNS = system: SF-295 CNS
SK-MEL-2 melanoma = system: SK-MEL-2 melanoma
SK-MEL-28 melanoma = system: SK-MEL-28 melanoma
SK-MEL-5 melanoma = system: SK-MEL-5 melanoma
SK-OV-3 ovarian = system: SK-OV-3 ovarian
SN12C renal = system: SN12C renal
SNB-19 CNS = system: SNB-19 CNS
SNB-75 CNS = system: SNB-75 CNS
SR leukemia = system: SR leukemia
SW-620 colon = system: SW-620 colon
T-47D breast = system: T-47D breast
TK-10 renal = system: TK-10 renal
U251 CNS = system: U251 CNS
UACC-257 melanoma = system: UACC-257 melanoma
UACC-62 melanoma = system: UACC-62 melanoma
UO-31 renal = system: UO-31 renal
NCI-H226 lung = system: NCI-H226 lung
OVCAR-4 ovarian = system: OVCAR-4 ovarian
SF-539 CNS = system: SF-539 CNS

COC1(c2ccccc2)NC(=S)NN=C1c1ccccc1 (centres undefined)
TGI (786-0 renal): > 100 µM
TGI (A498 renal): > 100 µM
TGI (A549 NSCLC): > 100 µM
TGI (ACHN renal): > 100 µM
TGI (BT-549 breast): 82.8 µM
TGI (CAKI-1 renal): > 100 µM
TGI (CCRF-CEM leukemia): > 100 µM
TGI (COLO 205 colon): 49.8 µM
TGI (DU-145 prostate): > 100 µM
TGI (EKVX NSCLC): > 100 µM
TGI (HCC-2998 colon): 37.8 µM
TGI (HCT-116 colon): > 100 µM
TGI (HCT-15 colon): 64.2 µM
TGI (HL-60(TB) leukemia): 54.5 µM
TGI (HOP-62 NSCLC): > 100 µM
TGI (HOP-92 NSCLC): > 100 µM
TGI (HS 578T breast): > 100 µM
TGI (HT29 colon): > 100 µM
TGI (IGROV1 ovarian): > 100 µM
TGI (K-562 leukemia): > 100 µM
TGI (KM12 colon): > 100 µM
TGI (LOX IMVI melanoma): > 100 µM
TGI (M14 melanoma): > 100 µM
TGI (MALME-3M melanoma): > 100 µM
TGI (MCF7 breast): > 100 µM
TGI (MDA-MB-231 breast): 70.9 µM
TGI (MDA-MB-435): 39.1 µM
TGI (MDA-N): 45 µM
TGI (MOLT-4 leukemia): > 100 µM
TGI (NCI-H23 lung): > 100 µM
TGI (NCI-H460 lung): 71.6 µM
TGI (NCI-H522 lung): 73.8 µM
TGI (NCI/ADR-RES ovarian): 37.7 µM
TGI (OVCAR-3 ovarian): 84.6 µM
TGI (OVCAR-5 ovarian): > 100 µM
TGI (OVCAR-8 ovarian): 84 µM
TGI (PC-3 prostate): > 100 µM
TGI (RPMI-8226 leukemia): > 100 µM
TGI (RXF 393 renal): > 100 µM
TGI (SF-268 CNS): > 100 µM
TGI (SF-295 CNS): 99.3 µM
TGI (SK-MEL-2 melanoma): 75.8 µM
TGI (SK-MEL-28 melanoma): > 100 µM
TGI (SK-MEL-5 melanoma): 80.7 µM
TGI (SK-OV-3 ovarian): 78.4 µM
TGI (SN12C renal): 60.8 µM
TGI (SNB-19 CNS): > 100 µM
TGI (SNB-75 CNS): 97.5 µM
TGI (SR leukemia): 85.8 µM
TGI (SW-620 colon): > 100 µM
TGI (T-47D breast): > 100 µM
TGI (TK-10 renal): > 100 µM
TGI (U251 CNS): 46.6 µM
TGI (UACC-257 melanoma): > 100 µM
TGI (UACC-62 melanoma): > 100 µM
TGI (UO-31 renal): > 100 µM

N#Cc1c(N)nc2n[nH]c(N)c2c1-c1ccccc1
TGI (786-0 renal): 69.8 µM
TGI (A498 renal): 5.77 µM
TGI (A549 NSCLC): > 65.5 µM
TGI (ACHN renal): 28.9 µM
TGI (BT-549 breast): 40.2 µM
TGI (CAKI-1 renal): 19.4 µM
TGI (CCRF-CEM leukemia): > 100 µM
TGI (COLO 205 colon): 24.3 µM
TGI (DU-145 prostate): 54.2 µM
TGI (EKVX NSCLC): 55 µM
TGI (HCC-2998 colon): > 57 µM
TGI (HCT-116 colon): 46.1 µM
TGI (HCT-15 colon): > 77.8 µM
TGI (HL-60(TB) leukemia): 71.1 µM
TGI (HOP-62 NSCLC): 63.9 µM
TGI (HOP-92 NSCLC): 8.01 µM
TGI (HS 578T breast): 24.2 µM
TGI (HT29 colon): 57.7 µM
TGI (IGROV1 ovarian): 13.4 µM
TGI (K-562 leukemia): > 100 µM
TGI (KM12 colon): 79.5 µM
TGI (LOX IMVI melanoma): 19 µM
TGI (M14 melanoma): 37.5 µM
TGI (MALME-3M melanoma): 22 µM
TGI (MCF7 breast): 24.7 µM
TGI (MDA-MB-231 breast): 38.7 µM
TGI (MDA-MB-435): 36.1 µM
TGI (MDA-N): 33 µM
TGI (MOLT-4 leukemia): 32.4 µM
TGI (NCI-H226 lung): > 79 µM
TGI (NCI-H23 lung): 50.2 µM
TGI (NCI-H460 lung): > 53.2 µM
TGI (NCI-H522 lung): 18 µM
TGI (NCI/ADR-RES ovarian): 48.5 µM
TGI (OVCAR-3 ovarian): 20.5 µM
TGI (OVCAR-4 ovarian): > 100 µM
TGI (OVCAR-5 ovarian): > 100 µM
TGI (OVCAR-8 ovarian): 41.8 µM
TGI (PC-3 prostate): 35.5 µM
TGI (RPMI-8226 leukemia): > 53.8 µM
TGI (RXF 393 renal): 13.2 µM
TGI (SF-268 CNS): 29.2 µM
TGI (SF-295 CNS): 29.7 µM
TGI (SF-539 CNS): 21.1 µM
TGI (SK-MEL-2 melanoma): 12.8 µM
TGI (SK-MEL-28 melanoma): 77.2 µM
TGI (SK-MEL-5 melanoma): 26.7 µM
TGI (SK-OV-3 ovarian): 20.4 µM
TGI (SN12C renal): 31.8 µM
TGI (SNB-19 CNS): > 58.8 µM
TGI (SR leukemia): > 60.1 µM
TGI (SW-620 colon): > 100 µM
TGI (T-47D breast): 3.9 µM
TGI (TK-10 renal): > 27.1 µM
TGI (U251 CNS): 92.2 µM
TGI (UACC-257 melanoma): > 83.6 µM
TGI (UACC-62 melanoma): 8.02 µM
TGI (UO-31 renal): 32.3 µM
